Assay in all cases: relative viability (nuclei count vs DMSO), 5 days (fraction); higher = more cells survive
Compound in assay [1]: C[C@]1(c2nc3c(C(N)=O)cccc3[nH]2)CCCN1 [Veliparib] + C[C@@H](Oc1cc(-c2cnn(C3CCNCC3)c2)cnc1N)c1c(Cl)ccc(F)c1Cl [Crizotinib] (partner 1 µM)
The procedure, abridged: (§1)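 Lung cancer cell lines in 1536-well plates got either a single drug or a fixed anchor-drug dose together with five library-drug doses (not always all listed) in √10 steps, by pin tool, on the day after seeding. Nuclei were counted after 5 days, and relative viability is the treated-to-vehicle ratio of nuclei counts. Values are medians of duplicate plates.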

Compound in assay [2]: COC1=CC=C(C=C1)CN2C=CC3=C2C=C(C=C3)C(=O)NO + O=C(c1cc(Cc2n[nH]c(=O)c3ccccc23)ccc1F)N1CCN(C(=O)C2CC2)CC1 [Olaparib] (partner 8 µM)
The procedure, abridged:
as §1

Compound in assay [3]: COC1=CC=C(C=C1)CN2C=CC3=C2C=C(C=C3)C(=O)NO + NC(=O)Nc1cc(-c2cccc(F)c2)sc1C(=O)N[C@H]1CCCNC1 [AZD7762] (partner 0.2 µM)
The procedure, abridged:
as §1

Compound in assay [4]: C[C@]1(c2nc3c(C(N)=O)cccc3[nH]2)CCCN1 [Veliparib] + COc1cc2c(Oc3ccc(NC(=O)C4(C(=O)Nc5ccc(F)cc5)CC4)cc3F)ccnc2cc1OCCCN1CCOCC1 [Foretinib] (partner 0.25 µM)
The procedure, abridged: as §1

With NCI-H2405, the relative viability turned out to be 0.845 in assay [1] (first compound 0.02 µM); 0.788 in assay [1] (first compound 0.06325 µM); 0.802 in assay [1] (first compound 0.2 µM); 0.815 in assay [1] (first compound 0.6325 µM); 0.909 in assay [1] (first compound 2 µM); 0.649 in assay [2] (first compound 0.08 µM). Also, the relative viability in assay [2] (first compound 0.8 µM) was determined as 0.85; in assay [2] (first compound 2.53 µM) it was 0.887; in assay [2] (first compound 8 µM) it was 0.799; in assay [3] (first compound 0.08 µM) it was 0.706; in assay [3] (first compound 0.8 µM) it was 0.85; in assay [3] (first compound 2.53 µM), 0.796. Also, the relative viability was 0.505 in assay [3] (first compound 8 µM); 1.09 in assay [4] (first compound 0.02 µM); 0.937 in assay [4] (first compound 0.06325 µM); 1.08 in assay [4] (first compound 0.2 µM); 1.03 in assay [4] (first compound 0.6325 µM); 1.07 in assay [4] (first compound 2 µM).
With NCI-H3122, the relative viability in assay [1] (first compound 0.02 µM) stood at 0.247; in assay [1] (first compound 0.06325 µM) it was 0.297; in assay [1] (first compound 0.2 µM), 0.26; in assay [1] (first compound 0.6325 µM) it was 0.268; in assay [1] (first compound 2 µM), 0.304; in assay [2] (first compound 0.08 µM), 0.624. Moreover, the relative viability in assay [2] (first compound 0.253 µM) stood at 0.642; in assay [2] (first compound 0.8 µM), 0.616; in assay [2] (first compound 2.53 µM), 0.6; in assay [2] (first compound 8 µM) it was 0.583; in assay [3] (first compound 0.08 µM), 0.977; in assay [3] (first compound 0.253 µM), 1.02. For the same cell line, the relative viability in assay [3] (first compound 0.8 µM) came out at 1.04; in assay [3] (first compound 2.53 µM) it was 0.999; in assay [3] (first compound 8 µM), 0.819; in assay [4] (first compound 0.02 µM), 1; in assay [4] (first compound 0.06325 µM) it was 0.926; in assay [4] (first compound 0.2 µM), 0.912. Also, the relative viability in assay [4] (first compound 0.6325 µM) is 0.943; in assay [4] (first compound 2 µM), 0.966.
Turning to PC-3 [JPC-3], the relative viability is 0.996 in assay [1] (first compound 0.02 µM); 0.961 in assay [1] (first compound 0.06325 µM); 0.914 in assay [1] (first compound 0.2 µM); 0.96 in assay [1] (first compound 0.6325 µM); 0.985 in assay [1] (first compound 2 µM); 1.1 in assay [2] (first compound 0.08 µM). In addition, the relative viability stood at 1.11 in assay [2] (first compound 0.8 µM); 1.19 in assay [2] (first compound 2.53 µM); 1.14 in assay [2] (first compound 8 µM); 0.799 in assay [3] (first compound 0.08 µM); 0.965 in assay [3] (first compound 0.8 µM); 0.869 in assay [3] (first compound 2.53 µM). The relative viability in assay [3] (first compound 8 µM) was determined as 0.652; in assay [4] (first compound 0.02 µM), 1.01; in assay [4] (first compound 0.06325 µM), 1.06; in assay [4] (first compound 0.2 µM), 0.968; in assay [4] (first compound 0.6325 µM), 0.975; in assay [4] (first compound 2 µM), 0.983.
Consider PC-14, for which the relative viability in assay [1] (first compound 0.02 µM) came out at 0.896; in assay [1] (first compound 0.06325 µM) it was 0.898; in assay [1] (first compound 0.2 µM), 0.781; in assay [1] (first compound 0.6325 µM) it was 0.766; in assay [1] (first compound 2 µM), 0.766; in assay [2] (first compound 0.08 µM), 0.242. Further, the relative viability in assay [2] (first compound 0.253 µM) amounted to 0.224; in assay [2] (first compound 0.8 µM), 0.306; in assay [2] (first compound 2.53 µM) it was 0.236; in assay [2] (first compound 8 µM), 0.215; in assay [3] (first compound 0.08 µM) it was 0.263; in assay [3] (first compound 0.253 µM), 0.276. Also, the relative viability worked out at 0.393 in assay [3] (first compound 0.8 µM); 0.315 in assay [3] (first compound 2.53 µM); 0.381 in assay [3] (first compound 8 µM); 0.965 in assay [4] (first compound 0.02 µM); 0.939 in assay [4] (first compound 0.06325 µM); 0.999 in assay [4] (first compound 0.2 µM). Moreover, the relative viability turned out to be 0.922 in assay [4] (first compound 0.6325 µM) and 0.923 in assay [4] (first compound 2 µM).
On to RERF-LC-KJ, for which the relative viability in assay [1] (first compound 0.02 µM) was found to be 0.893; in assay [1] (first compound 0.06325 µM), 0.751; in assay [1] (first compound 0.2 µM), 0.847; in assay [1] (first compound 0.6325 µM), 0.784; in assay [1] (first compound 2 µM), 0.783; in assay [2] (first compound 0.08 µM), 0.829. Moreover, the relative viability in assay [2] (first compound 0.253 µM) is 0.825; in assay [2] (first compound 0.8 µM), 0.986; in assay [2] (first compound 2.53 µM), 0.816; in assay [2] (first compound 8 µM), 0.806; in assay [3] (first compound 0.08 µM) it was 0.888; in assay [3] (first compound 0.253 µM) it was 0.773. Further, the relative viability in assay [3] (first compound 0.8 µM) is 0.918; in assay [3] (first compound 2.53 µM), 0.948; in assay [3] (first compound 8 µM) it was 0.967; in assay [4] (first compound 0.02 µM), 0.881; in assay [4] (first compound 0.06325 µM) it was 0.807; in assay [4] (first compound 0.2 µM) it was 0.879. In addition, the relative viability in assay [4] (first compound 0.6325 µM) stood at 0.888; in assay [4] (first compound 2 µM), 0.889.
